In article PMC12603041, “A neuroprotective tetrapeptide for treatment of acute traumatic brain injury” (EMBO Molecular Medicine, 2025):
Peptide text beside a SMILES is read from it.

Columns and labels:
[1] = CAQK plasma clearance in rats; format: in vivo, rat
Protocol: Figure EV2 CAQK plasma clearance in rats. (A) CAQK was injected daily i.v. in healthy adult Sprague-Dawley rats at a 10 mg/kg dose for 7 days. Blood was collected at different time points at Day 1 and Day 7, and plasma was analyzed by LC/MS to analyze CAQK. Plasma concentration of CAQK was plotted. N = 3 per time point. Plasma clearance data were also used to calculate pharmacokinetic parameters in (B). (C) FP measurement of CAQK binding to BSA. FAM-CAQK (20 nM) was incubated with BSA at the indicated concentration for 1 h at 37 °C. n = 3.
(§1) CAQK (12.5 mg/kg) was injected i.v. into mice with CCI at 4 h post-injury. Blood was collected from these mice at different time points, and plasma was processed and analyzed by LC/MS after a reduction and alkylation step under reducing conditions to capture total peptide (free peptide and peptide bound to plasma proteins by disulfide formation). Plasma concentration was plotted using WinNonlin. Similarly, for analysis in rats, CAQK (10 mg/kg) was injected i.v. into healthy Sprague-Dawley rats once daily for 7 days. Blood was collected at different time points at Day 1 and Day, 7 and plasma was analyzed by LC/MS to analyze CAQK. Plasma concentration of CAQK was plotted. N = 3 per time point.

Safety study in CCI mice = format: in vivo, mouse; settings: for ALP / ALT / BUN / GGT / TBIL: CCI mice, blood after two weeks, n = 5; for ALP / ALT / BUN: mean ± SD
Protocol: Male C57BL/6 mice (n = 5 per group) with CCI injury were intravenously administered daily with control PBS or with various concentrations (1, 5, and 25 mg/kg) of the CAQK peptide. After 2 weeks, blood was collected from the mice and analyzed for liver and kidney toxicity. Tests performed for liver function (ALP: alkaline phosphatase, ALT: alanine aminotransferase, TBIL total bilirubin, GGT G-glutamyl transferase) and kidney function (BUN: blood urea nitrogen). Results expressed as mean ± SD. For a more detailed safety analysis, Sprague-Dawley rats were randomized to four dose groups. CAQK or vehicle (0.9% sodium chloride injection, USP) was administered once daily by i.v. administration to male and female rats at 0 (vehicle),10, 100, or 300 mg/kg/day (Groups 1–4, respectively) for 7 consecutive days. All animals were euthanized and necropsied after blood sample collection for clinical pathology on Day 8. All animals in Groups 1–4 were evaluated for clinical observations, body weights, and clinical pathology (hematology, coagulation, and serum chemistry), gross necropsy observations and major organ weights. […]
Appendix Table S2. Safety study in CCI mice. C57BL/6 mice (n = 5 per group) with CCI injury were intravenously injecteddaily for 7 days with vehicle control (PBS)or with the shown concentration of the CAQK peptide. After two weeks, blood was collected from the mice and analyzed for liver and kidney toxicity. Tests performed for liver function:ALP:
Alkaline Phosphatase, ALT: Alanine Aminotransferase, TBIL-total bilirubin, GGT -G-glutamyl transferase,and for kidney function:BUN: Blood urea nitrogen. Results

in vivo = settings: mouse, iv, 12.5 mg/kg
Protocol: (§2) Figure 2 Pharmacokinetic analysis of CAQK. (A) Mice with CCI received i.v. bolus of CAQK (12.5 mg/kg) at 4 h after CCI. Blood was collected at different time points, and plasma was analyzed by LC/MS. Plasma concentration of CAQK was plotted using WinNonlin. N = 3 per time point. (B) Plasma clearance data were used to calculate pharmacokinetic parameters using a two-compartment analysis. (C) CAQK accumulation was analyzed in brain homogenates from injured (ipsilateral) and uninjured (contralateral) sides at different time points after i.v. injection and plotted as ng/g of brain tissue. N = 3/group. Data were expressed as mean ± SEM. Differences were analyzed using an unpaired t-test. […] vs contralateral side. […] It is not in the table of panel B, so it is not attached as a condition.
as §1

injured brain [2] = settings: mouse, in vivo, iv; cited from earlier work
Source text: We have previously identified a tetrapeptide, CAQK, that accumulates in the ECM of the injured brain. […] We reasoned that knowing the target molecule CAQK binds to would likely give hints of the possible nature of such an activity. Previous work has shown that CAQK binds to a chondroitin sulfate proteoglycan (CSPG)-rich protein complex, the expression of which is elevated following an inju ... || Given the CAQK accumulation in the injured brain and binding to TnC in injured ECM, and the functional activities observed with other homing peptides, it seemed possible that CAQK might affect the course of TBI. To prepare for functional testing of CAQK, we performed CAQK half-life analyses using a mouse model of CCI. […] Initial clearance from the circulation through glomerular filtration is expected for a small peptide, explaining the short half-life. A small per ...

injured brain [3] = settings: mouse, in vivo
Protocol: as §2
as §1, with “Similarly, for analysis in rats, CAQK (10 mg/kg) was injected i.v. into healthy Sprague-Dawley rats once daily for 7 days.” left out, “Plasma concentration of CAQK was plotted. N = 3 per time point.” left out

Compound: C[C@H](NC(=O)[C@@H](N)CS)C(=O)N[C@@H](CCC(N)=O)C(=O)N[C@@H](CCCCN)C(N)=O [CAQK, cysteine-alanine-glutamine-lysine] (H-CAQK-NH2)
- half-life after single injection versus daily injections over a week ([1]; healthy Sprague-Dawley rats, 10 mg/kg i.v. daily for 7 days, Day 1 and Day 7): remained the same
- pK profile after 7-day repeat dosing ([1]; repeat IV dosing, 7 days): unaltered
- ALP (Safety study in CCI mice; 1 mg/kg i.v. daily for 7 days): 45 ± 5.3 U/L
- ALT (Safety study in CCI mice; 1 mg/kg i.v. daily for 7 days): 24.3 ± 6.8 U/L
- BUN (Safety study in CCI mice; 1 mg/kg i.v. daily for 7 days): 21.3 ± 3.5 mg /bL
- GGT (Safety study in CCI mice; 1 mg/kg i.v. daily for 7 days): < 5 U/L
- TBIL (Safety study in CCI mice; 1 mg/kg i.v. daily for 7 days): 0.3 mg/dL
- ALP (Safety study in CCI mice; 5 mg/kg i.v. daily for 7 days): 47.4 ± 8.2 U/L
- ALT (Safety study in CCI mice; 5 mg/kg i.v. daily for 7 days): 23.4 ± 4.9 U/L
- BUN (Safety study in CCI mice; 5 mg/kg i.v. daily for 7 days): 22.2 ± 1 mg /bL
- GGT (Safety study in CCI mice; 5 mg/kg i.v. daily for 7 days): < 5 U/L
- TBIL (Safety study in CCI mice; 5 mg/kg i.v. daily for 7 days): 0.3 mg/dL
- ALP (Safety study in CCI mice; 25 mg/kg i.v. daily for 7 days): 42.6 ± 7.6 U/L
- ALT (Safety study in CCI mice; 25 mg/kg i.v. daily for 7 days): 34.8 ± 13.2 U/L
- BUN (Safety study in CCI mice; 25 mg/kg i.v. daily for 7 days): 24.8 ± 2.05 mg /bL
- GGT (Safety study in CCI mice; 25 mg/kg i.v. daily for 7 days): < 5 U/L
- TBIL (Safety study in CCI mice; 25 mg/kg i.v. daily for 7 days): 0.3 mg/dL
- effects on body weight, organ weight, or clinical pathology (Safety study in CCI mice; TBI mice, daily i.v. doses (1, 5, and 25 mg/kg)): no effects
- AUC(0-inf) (in vivo): 27800 ng·h/mL
- AUC(0-t) (in vivo): 27400 ng·h/mL
- C0 (in vivo): 45100 ng/mL
- CL2 (in vivo): 13 mL/min/kg
- MRT (in vivo): 4.2 h
- T1/2, initial rapid clearance from the blood (in vivo): 9 min
- T1/2, second elimination phase (in vivo): 4.1 h
- V1 (in vivo): 0.28 L/kg
- V2 (in vivo): 1.6 L/kg
- Vd (in vivo): 1.9 L/kg
- clearance (in vivo): 7.5 mL/min/kg
- half-life (in vivo): 4.2 h
- k10 (in vivo): 1.6 h⁻¹
- k12 (in vivo): 2.8 h⁻¹
- k21 (in vivo): 0.48 h⁻¹
- t1/2Alpha (in vivo): 9 min
- accumulation in other organs (injured brain [2]): No other organs showed peptide accumulation except the kidneys
- estimated half-life in the brain (injured brain [3]): about 5.8 h
- accumulation in the injured side of the brain versus the contralateral side (injured brain [3]; iv): over eightfold
